Consider 19 compounds from US20240425475A1, “COMPOUND BASED ON QUINAZOLINE-SUBSTITUTED GLUTARIMIDE SKELETON AND USE THEREOF” (GLUETACS THERAPEUTICS (SHANGHAI) CO., LTD., priority 2022, published 2024).

Assay [1] has as its system Human colon cancer cell: SW620. As to the kind of experiment: Half inhibitory concentration (IC50) against tumor cells, CCK-8 cell viability. The following applies: SW-620, 96 h treatment. The class given is cell-based. The method, then: (§1) The tumor cells used herein were cultured in a cell culture medium listed in table 2 at 37° C. in an incubator with 5% CO2. Prior to experimentation, all cells used were correctly identified by STR profiling, and tested negative for mycoplasma through routine screenings. [table] Determination of Half Inhibitory Concentration (IC50) of the Compounds Against Tumor Cells: IC50 values of the compounds of the present disclosure (including the compounds in Table 1, and compounds of examples 1-104) were measured using the Meilun Cell Counting Kit-8 kit from Dalian Meilun Biotech Co., Ltd. Assay details are as follows: tumor cells were seeded in a 96-well plate at a density listed in Table 3. After 24 h, 100 μL of the inoculated cells were treated with 0.5 μl of the compounds of the present disclosure (including the compounds in Table 1, and compounds of examples 1-104) at 10 different successively decreasing concentrations (starting at the highest concentration of […]; 5-fold serial dilutions). After the cells were treated with the compounds of the present disclosure for a period of time, cell viability was measured according to the instructions provided with the CCK-8 kit. DMSO served as the negative control, and corresponding commercial immunomodulatory drug Avadomide (CC-122) was used as the positive control, both of which treated the cells using the same protocol as that of the compounds of the present disclosure. The growth inhibition of the compounds of the present disclosure on cells was plotted by Prism Graphpad software, and the IC50 values of the compounds of the present disclosure were calculated therefrom. [table] We tested the activities of the compounds of the present invention (including the compounds in Table 1 and Examples 1-104 compounds) in tumor cells through a dose-dependent manner. The cells were treated with the compounds of the present invention at 10 different successively decreasing concentrations (starting at the highest concentration of 10 μM; 5-fold serial dilutions) for 72 h or 96 h, and then the cell viability determination was performed in accordance with CCK-8 reagent operating instructions.

Assay [2] concerns the target human Cereblon WT GST-tagged protein (Homo sapiens (Human), UniProt Q96SW2). In words: CRBN-binding affinity, CEREBLON BINDING kit (HTRF). The following applies: HTRF inhibitory activity, binding to CRBN. An excerpt:
Determination of CRBN-Binding Affinity of Compounds
The CEREBLON BINDING kits (specification: 10,000 tests; product number: Catalog #64BDCRBNPEH; CISBIO company) was used to determine the CRBN binding ability of the compounds to be tested through a HTRF method (homogeneous time-resolved fluorescence). The specific methods are as follows: • 1. According to the instructions of the CEREBLON BINDING kits, the compounds to be tested of the present invention and lenalidomide were serially diluted using diluent #9 (1×) solution to obtain a final concentration of 2 μM for both the tested compounds and lenalidomide solution. • 2.2.5 μL of the above 2 μM of the tested compounds and lenalidomide solution, as well as the same volume of diluent #9 (1×) solution (solvent control group, Std0) were taken and added to each well of a 96-well plate, respectively. Then, 2.5 μL of (human Cereblon WT GST-tagged protein) solution was added to each well. Finally, 5 μL of the uniformly mixed thalidomide-Red reagent and GST Eu antibody working solution were added to each of the above wells. The final concentration of the tested compounds and lenalidomide in each well is 0.5 μM. • 3. The blank control wells were sequentially added with 2.5 μL of diluent #9 (1×) solution, 2.5 μL of PROTAC binding buffer, and 5 μL of uniformly mixed thalidomide-Red reagent and GST Eu antibody working solution. • 4. After sealing and incubating the solutions in the above wells at room temperature for 3 hours, the absorbance values at emission wavelengths of 620 nm and 665 nm were detected by the HTRF method using a Spark microplate reader (V3.1 SP1).
The corresponding CRBN binding inhibition rate was calculated using the following method: […]
Note: OD 665 nmcompound is the absorbance value of each well of the compounds to be tested of the present disclosure at an emission wavelength of 665 nm.
OD 620 nmcompound is the absorbance value of each well of the compounds to be tested of the present disclosure at an emission wavelength of 620 nm.
OD 665 nmcontrol is the absorbance value of the blank control well at an emission wavelength of 665 nm.
OD 620 nmcontrol is the absorbance value of the blank control well at an emission wavelength of 620 nm.
OD 665 nmstd0 is the absorbance value of the solvent control well at an emission wavelength of 665 nm.
OD 620 nmstd0 is the absorbance value of the solvent control well at an emission wavelength of 620 nm.

Assay [3] deals with Human diffuse large B-cell lymphoma cell line: TMD8. As to the kind of experiment: Half inhibitory concentration (IC50) against tumor cells, CCK-8 cell viability. Format: cell-based. As to conditions: 96 h treatment. The method, then:
as §1

In assay [4] the test system is Human dexamethasone-resistant multiple myeloma cell line: MM.1R. The assay is described as above. Format: cell-based. As to conditions: MM.1R cells, 72 h treatment. The method, then:
as §1

For assay [5], the system named is Human multiple myeloma cells: MM.1S. The description is as above. The class given is cell-based. As to conditions: MM1.S, MM.1S cells, 72 h treatment. The method, then:
as §1

human Cereblon WT GST-tagged protein, sequence (Q96SW2 whole entry): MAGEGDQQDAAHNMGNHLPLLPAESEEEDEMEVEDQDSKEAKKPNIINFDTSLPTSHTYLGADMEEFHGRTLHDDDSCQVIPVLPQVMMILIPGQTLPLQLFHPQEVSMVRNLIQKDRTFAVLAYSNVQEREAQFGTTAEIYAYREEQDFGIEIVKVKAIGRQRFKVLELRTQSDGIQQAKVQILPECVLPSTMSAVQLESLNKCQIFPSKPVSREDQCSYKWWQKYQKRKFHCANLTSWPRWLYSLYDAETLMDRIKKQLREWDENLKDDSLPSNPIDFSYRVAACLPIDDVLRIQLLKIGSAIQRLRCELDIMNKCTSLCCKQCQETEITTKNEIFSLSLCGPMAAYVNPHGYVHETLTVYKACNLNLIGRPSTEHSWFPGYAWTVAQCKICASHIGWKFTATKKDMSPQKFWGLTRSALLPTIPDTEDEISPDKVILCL

With `Cc1nc2cccc(SCCN3CCN(c4ccc(C#N)cc4F)CC3)c2c(=O)n1C1CCC(=O)NC1=O` (centres unmarked) [GT-03314, 4-(4-(2-((3-(2,6-dioxopiperidin-3-yl)-2-methyl-4-oxo-3,4-dihydroquinazolin-5-yl)thio)ethyl)piperazin-1-yl)-3-fluorobenzonitrile], in assay [1], the midpoint of inhibition, the IC50, lay at 709 nM. As to `Cc1nc2cccc(NCCCCCNC3C4CC5CC(C4)CC3C5)c2c(=O)n1C1CCC(=O)NC1=O` (centres unmarked) [GT-02393, 3-(5-((5-(((1r,3r,5r,7r)-adamantan-2-yl)amino)pentyl)amino)-2-methyl-4-oxoquinazolin-3(4H)-yl)piperidine-2,6-dione], the half-maximal inhibitory concentration (IC50) – broadly, the point on the concentration scale where inhibition reaches its midpoint – in assay [2] came to 420 nM; in assay [3] it was 458 nM. For the compound `Cc1cc2cccc(NCCN3CCN(C(c4ccc(F)cc4)c4ccc(F)cc4)CC3)c2c(=O)n1C1CCC(=O)NC1=O` (centres unmarked) [GT-03388, 3-(8-((2-(4-(bis(4-fluorophenyl)methyl)piperazin-1-yl)ethyl)amino)-3-methyl-1-oxoisoquinolin-2(1H)-yl)piperidine-2,6-dione], the IC50 in assay [4] came out at 352 nM. As to `Cc1nc2cccc(CCCCCCCCNC34CC5CC(CC(C5)C3)C4)c2c(=O)n1C1CCC(=O)NC1=O` (centres unmarked) [GT-02797, 3-(5-(8-(((1s,3s)-adamantan-1-yl)amino)octyl)-2-methyl-4-oxoquinazolin-3(4H)-yl)piperidine-2,6-dione], the values for the IC50 in assay [2] and in assay [3] were 180 nM and 312 nM, respectively. For the compound `Cc1nc2cccc(NCCCCCCCO)c2c(=O)n1C1CCC(=O)NC1=O` (centres unmarked) [GT-02598, 3-(5-((7-hydroxyheptyl)amino)-2-methyl-4-oxoquinazolin-3(4H)-yl)piperidine-2,6-dione], the IC50 in assay [2] was 3660 nM; in assay [5], 17.2 nM.

Consider `Cc1nc2cccc(NCCCCCCCN3CCC4(CC3)CC(F)(F)C4)c2c(=O)n1C1CCC(=O)NC1=O` (centres unmarked) [GT-02773, 3-(5-((7-(2,2-difluoro-7-azaspiro[3.5]nonan-7-yl)heptyl)amino)-2-methyl-4-oxoquinazolin-3(4H)-yl)piperidine-2,6-dione], for which the IC50 was found to be 2800 nM in assay [2] and 440 nM in assay [3]. On to `Cc1nc2cccc(NCCCCCCCNC34CC5CC(CC3C5)C4)c2c(=O)n1C1CCC(=O)NC1=O` (centres unmarked) [GT-02495, 3-(5-((7-(((3as,6as)-hexahydro-2,5-methanopentalen-3a(1H)-yl)amino)heptyl)amino)-2-methyl-4-oxoquinazolin-3(4H)-yl)piperidine-2,6-dione], for which the values for the half-maximal inhibitory concentration (IC50) in assay [2], in assay [4] and in assay [3] were 320 nM, 9.8 nM and 21.4 nM, respectively. As to `Cc1nc2cccc(NCCCCCCNC34CC5CC(CC3C5)C4)c2c(=O)n1C1CCC(=O)NC1=O` [GT-02494, 3-(5-((6-(((2R,3as,5S,6as)-hexahydro-2,5-methanopentalen-3a(1H)-yl)amino)hexyl)amino)-2-methyl-4-oxoquinazolin-3(4H)-yl)piperidine-2,6-dione], the half-inhibitory concentration (IC50) in assay [2] came to 460 nM; in assay [3], 184 nM. Regarding `Cc1nc2cccc(NCCCCCNC34CC5CC(CC(C5)C3)C4)c2c(=O)n1C1CCC(=O)NC1=O` (centres unmarked) [GT-02280, 3-(5-((5-(((3s,5s,7s)-adamantan-1-yl)amino)pentyl)amino)-2-methyl-4-oxoquinazolin-3(4H)-yl)piperidine-2,6-dione], the IC50 in assay [3] is 409 nM.

With `Cc1nc2cccc(NCCCCCCCNC34CC5CC(CC(C5)C3)C4)c2c(=O)n1C1CCC(=O)NC1=O` (centres unmarked) [GT-02237, 3-(5-((7-(((1s,3s)-adamantan-1-yl)amino)heptyl)amino)-2-methyl-4-oxoquinazolin-3(4H)-yl)piperidine-2,6-dione], the IC50 was found to be 950 nM in assay [2], 3.3 nM in assay [5] and 8.2 nM in assay [3]. `Cc1nc2cccc(NCCCCCNC34CC5CC(CC3C5)C4)c2c(=O)n1C1CCC(=O)NC1=O` [GT-02496, 3-(5-((5-(((2R,3as,5S,6as)-hexahydro-2,5-methanopentalen-3a(1H)-yl)amino)pentyl)amino)-2-methyl-4-oxoquinazolin-3(4H)-yl)piperidine-2,6-dione]: the IC50 in assay [2] is 420 nM; in assay [3], 474 nM. As to `Cc1nc2cccc(NCCCCCCCN[C@@]34CC5CC(C)(C[C@@](C)(C5)C3)C4)c2c(=O)n1C1CCC(=O)NC1=O` (stereo partly drawn) [GT-02767, 3-(5-((7-(((1SR,3RS,5SR,7r)-3,5-dimethyladamantan-1-yl)amino)heptyl)amino)-2-methyl-4-oxoquinazolin-3(4H)-yl)piperidine-2,6-dione], the IC50 in assay [2] is 1050 nM; in assay [5], 69.9 nM; in assay [3] it was 309 nM. `Cc1nc2cccc(NCCCCCCCN3CC4CC4C3)c2c(=O)n1C1CCC(=O)NC1=O` (centres unmarked) [GT-02772, 3-(5-((7-(3-azabicyclo[3.1.0]hexan-3-yl)heptyl)amino)-2-methyl-4-oxoquinazolin-3(4H)-yl)piperidine-2,6-dione]: half-maximal inhibition in assay [3] (IC50) was put at 448 nM. In the case of `Cc1nc2cccc(NCCCCCNC(=O)C34CC5CC(CC(C5)C3)C4)c2c(=O)n1C1CCC(=O)NC1=O` (centres unmarked) [GT-02323, (3r,5r,7r)-N-(5-((3-(2,6-dioxopiperidin-3-yl)-2-methyl-4-oxo-3,4-dihydroquinazolin-5-yl)amino)pentyl)adamantane-1-carboxamide], the concentration for half-maximal inhibition (IC50) in assay [3] was 652 nM.

Regarding `Cc1nc2cccc(NCCCCCCCNC(C)C34CC5CC(CC(C5)C3)C4)c2c(=O)n1C1CCC(=O)NC1=O` (centres unmarked) [GT-02768, 3-(5-((7-((1-((3r,5r,7r)-adamantan-1-yl)ethyl)amino)heptyl)amino)-2-methyl-4-oxoquinazolin-3(4H)-yl)piperidine-2,6-dione], the IC50 in assay [2] amounted to 680 nM; in assay [5], 98.1 nM; in assay [3], 294 nM.

For the compound `Cc1nc2cccc(NCCCCCCNC34CC5CC(CC(C5)C3)C4)c2c(=O)n1C1CCC(=O)NC1=O` (centres unmarked) [GT-02235, 3-(5-((6-(((3s,5s,7s)-adamantan-1-yl)amino)hexyl)amino)-2-methyl-4-oxoquinazolin-3(4H)-yl)piperidine-2,6-dione], the results for the IC50 in assay [5] and in assay [3] were 39.5 nM and 146 nM, respectively. In assay [3], `Cc1nc2cccc(NCCOCCOCCNC34CC5CC(CC(C5)C3)C4)c2c(=O)n1C1CCC(=O)NC1=O` (centres unmarked) [GT-02279, 3-(5-((2-(2-(2-(((1s,3s)-adamantan-1-yl)amino)ethoxy)ethoxy)ethyl)amino)-2-methyl-4-oxoquinazolin-3(4H)-yl)piperidine-2,6-dione] showed an IC50 of 438 nM. Still for that read-out and setting: the figure for `Cc1nc2cccc(NCCCCNC34CC5CC(CC(C5)C3)C4)c2c(=O)n1C1CCC(=O)NC1=O` (centres unmarked) [GT-01818, 3-(5-((4-(((3s,5s,7s)-adamantan-1-yl)amino)butyl)amino)-2-methyl-4-oxoquinazolin-3(4H)-yl)piperidine-2,6-dione] is 554 nM.

Take `Cc1nc2cccc(NCCCCCCCNC34CCC(F)(CC3)CC4)c2c(=O)n1C1CCC(=O)NC1=O` (centres unmarked) [GT-02774, 3-(5-((7-((4-fluorobicyclo[2.2.2]octan-1-yl)amino)heptyl)amino)-2-methyl-4-oxoquinazolin-3(4H)-yl)piperidine-2,6-dione]: the IC50 in assay [2] was determined as 2610 nM; in assay [3], 102 nM.
